Assay results as given in publication PMC3914206.

How the values were obtained:
Type in all cases: binding
Details in all cases: Compound Concentration 10 µM
panel of 442 kinases [1] = molecular target: T1, panel of 442 kinases (Homo sapiens, UniProt O60331)
T1 construct: purchased KINOMEscan
Source text: (§1) We assessed the selectivity of members of this scaffold using the KINOMEscan methodology across a near comprehensive panel of 442 kinases [[18,27]].

panel of 442 kinases [2] = molecular target: T2, panel of 442 kinases (Homo sapiens, UniProt P16591)
T2 construct: purchased KINOMEscan
Source text: as §1

panel of 442 kinases [3] = molecular target: T3, panel of 442 kinases (Homo sapiens, UniProt Q9Y6E0)
T3 construct: purchased KINOMEscan
Source text: as §1

panel of 442 kinases [4] = molecular target: T4, panel of 442 kinases (Homo sapiens, UniProt Q8IY84)
T4 construct: purchased KINOMEscan
Source text: as §1

T3 sequence (Q9Y6E0 whole entry): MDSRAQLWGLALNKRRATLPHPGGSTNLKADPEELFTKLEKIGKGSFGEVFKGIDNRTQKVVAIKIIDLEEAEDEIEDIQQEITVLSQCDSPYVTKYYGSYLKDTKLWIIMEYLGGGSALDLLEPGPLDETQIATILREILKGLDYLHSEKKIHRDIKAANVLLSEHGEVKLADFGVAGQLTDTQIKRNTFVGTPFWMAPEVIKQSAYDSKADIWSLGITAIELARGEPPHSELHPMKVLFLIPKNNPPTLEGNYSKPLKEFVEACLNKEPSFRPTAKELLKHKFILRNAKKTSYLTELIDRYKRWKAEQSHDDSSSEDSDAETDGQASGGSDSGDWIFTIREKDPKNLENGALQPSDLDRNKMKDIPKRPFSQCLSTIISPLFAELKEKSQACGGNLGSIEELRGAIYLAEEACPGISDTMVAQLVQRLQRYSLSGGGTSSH
T2 sequence (P16591 whole entry): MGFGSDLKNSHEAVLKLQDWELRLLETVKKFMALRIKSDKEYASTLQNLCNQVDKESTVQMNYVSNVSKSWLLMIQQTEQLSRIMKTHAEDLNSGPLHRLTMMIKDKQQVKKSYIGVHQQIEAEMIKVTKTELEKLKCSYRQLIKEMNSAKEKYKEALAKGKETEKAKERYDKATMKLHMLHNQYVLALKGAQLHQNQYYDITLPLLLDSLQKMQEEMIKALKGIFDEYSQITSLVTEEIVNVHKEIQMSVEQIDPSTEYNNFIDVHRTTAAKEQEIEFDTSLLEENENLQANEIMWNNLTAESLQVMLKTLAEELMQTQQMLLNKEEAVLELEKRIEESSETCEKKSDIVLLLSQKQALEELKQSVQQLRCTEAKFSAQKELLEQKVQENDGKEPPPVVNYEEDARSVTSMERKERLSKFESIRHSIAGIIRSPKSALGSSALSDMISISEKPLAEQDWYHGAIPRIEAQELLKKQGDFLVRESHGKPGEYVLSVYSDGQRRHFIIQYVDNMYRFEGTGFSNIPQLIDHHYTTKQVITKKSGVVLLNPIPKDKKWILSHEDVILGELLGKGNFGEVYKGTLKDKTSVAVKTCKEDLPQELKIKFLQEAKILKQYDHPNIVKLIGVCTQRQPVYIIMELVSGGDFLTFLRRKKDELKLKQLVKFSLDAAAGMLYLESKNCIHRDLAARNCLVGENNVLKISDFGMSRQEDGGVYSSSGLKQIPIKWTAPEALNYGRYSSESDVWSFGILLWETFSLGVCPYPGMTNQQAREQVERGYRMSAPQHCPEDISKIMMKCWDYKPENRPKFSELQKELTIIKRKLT
T4 sequence (Q8IY84 whole entry): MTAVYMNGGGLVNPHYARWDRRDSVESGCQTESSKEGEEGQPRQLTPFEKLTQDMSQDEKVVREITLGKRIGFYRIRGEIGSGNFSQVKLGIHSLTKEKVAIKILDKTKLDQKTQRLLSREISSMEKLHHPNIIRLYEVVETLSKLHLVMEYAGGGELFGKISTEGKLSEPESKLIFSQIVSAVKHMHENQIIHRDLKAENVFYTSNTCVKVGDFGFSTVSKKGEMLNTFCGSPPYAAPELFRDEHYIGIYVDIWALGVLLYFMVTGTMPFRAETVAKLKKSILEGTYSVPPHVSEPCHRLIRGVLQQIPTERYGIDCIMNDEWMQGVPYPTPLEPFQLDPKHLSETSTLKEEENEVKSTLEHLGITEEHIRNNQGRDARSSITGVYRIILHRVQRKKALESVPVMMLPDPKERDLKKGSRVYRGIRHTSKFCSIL
T1 sequence (O60331 whole entry): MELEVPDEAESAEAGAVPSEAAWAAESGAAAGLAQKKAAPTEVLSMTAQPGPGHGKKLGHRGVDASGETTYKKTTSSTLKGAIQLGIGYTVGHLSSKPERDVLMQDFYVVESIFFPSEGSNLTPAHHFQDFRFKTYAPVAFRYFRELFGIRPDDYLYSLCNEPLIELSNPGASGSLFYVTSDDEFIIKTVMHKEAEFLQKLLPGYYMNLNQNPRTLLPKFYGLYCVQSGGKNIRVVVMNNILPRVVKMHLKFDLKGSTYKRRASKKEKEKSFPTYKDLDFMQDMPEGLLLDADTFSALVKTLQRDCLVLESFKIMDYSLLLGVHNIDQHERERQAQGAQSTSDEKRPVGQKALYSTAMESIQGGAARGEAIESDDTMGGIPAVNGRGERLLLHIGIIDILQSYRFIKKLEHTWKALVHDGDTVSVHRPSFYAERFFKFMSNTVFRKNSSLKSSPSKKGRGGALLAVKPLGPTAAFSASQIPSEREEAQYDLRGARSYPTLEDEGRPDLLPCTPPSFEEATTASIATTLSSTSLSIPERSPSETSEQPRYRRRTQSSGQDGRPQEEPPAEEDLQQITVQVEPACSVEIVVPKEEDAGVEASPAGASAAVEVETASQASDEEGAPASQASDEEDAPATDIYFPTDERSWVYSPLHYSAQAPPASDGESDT

Row | Compound | KINOMEscan: PIP5K1C (panel of 442 kinases [1]) | KINOMEscan: FER (panel of 442 kinases [2]) | KINOMEscan: MST3 (panel of 442 kinases [3]) | KINOMEscan: NIM1 (panel of 442 kinases [4])
1 | CCOc1cc(C(=O)N2CCC(N3CCN(C)CC3)CC2)ccc1Nc1ncc2c(n1)N(C1CCCC1)c1ccccc1C(=O)N2C [Compound 26] | 100 | 96 | 100 | 100
2 | COc1cc(C(=O)N2CCC(N3CCN(C)CC3)CC2)ccc1Nc1ncc2c(n1)N1CCc3cccc(c31)C(=O)N2C [Compound 24] | 6.3 | 64 | 73 | –
3 | COc1cc(C(=O)N2CCC(N3CCN(C)CC3)CC2)ccc1Nc1ncc2c(n1)N(C)c1ccccc1C(=O)N2C [15 (LRRK2-IN-1)] | 96 | 51 | 87 | 100
4 | COc1cc(C(=O)N2CCC(N3CCN(C)CC3)CC2)ccc1Nc1ncc2c(n1)N(C1CCCC1)c1ccccc1C(=O)N2C [Compound 25, 11-cyclopentyl-2-((2-methoxy-4-(4-(4-methylpiperazin-1-yl)piperidine-1-carbonyl)phenyl)amino)-5-methyl-5H-benzo[e]pyrimido[5,4-b][1,4]diazepin-6(11H)-one] | 100 | 38 | 88 | 100
